Converted amounts (≈) assume the structure as drawn.
How the values were obtained:
NOD2 = NOD2 (Homo sapiens, UniProt Q9HC29); assay: NOD2 NF-κB SEAP reporter assay in HEK-Blue hNOD2 cells; settings: for NOD2 activation at 10 μM, fold increase: 18 h, NF-κB transcriptional activity (SEAP) relative to 0.1% DMSO; for NOD2 agonist activity: compared with NOD2 agonist 3 and MDP (4 μM)
[1] = Kinetic solubility in PBS (HPLC solubility assay); settings: aqueous buffer, kinetic from dmso stock
TLR4 = TLR4 (Homo sapiens, UniProt O00206+Q9Y6Y9); assay: TLR4 NF-κB SEAP reporter assay in HEK-Blue hTLR4 cells; settings: for TLR4 activation at 10 μM, fold increase / TLR4 activation at 100 μM, fold increase: 18 h, NF-κB transcriptional activity (SEAP) relative to 0.1% DMSO; for maximum TLR4 activation: HEK-Blue hTLR4, 21 at 10 μM; for concentration at which compound activated TLR4: dose-response 0.5–10 μM (17–21) or 1–100 μM (27–31)
Chain of TLR4 (O00206 24-839): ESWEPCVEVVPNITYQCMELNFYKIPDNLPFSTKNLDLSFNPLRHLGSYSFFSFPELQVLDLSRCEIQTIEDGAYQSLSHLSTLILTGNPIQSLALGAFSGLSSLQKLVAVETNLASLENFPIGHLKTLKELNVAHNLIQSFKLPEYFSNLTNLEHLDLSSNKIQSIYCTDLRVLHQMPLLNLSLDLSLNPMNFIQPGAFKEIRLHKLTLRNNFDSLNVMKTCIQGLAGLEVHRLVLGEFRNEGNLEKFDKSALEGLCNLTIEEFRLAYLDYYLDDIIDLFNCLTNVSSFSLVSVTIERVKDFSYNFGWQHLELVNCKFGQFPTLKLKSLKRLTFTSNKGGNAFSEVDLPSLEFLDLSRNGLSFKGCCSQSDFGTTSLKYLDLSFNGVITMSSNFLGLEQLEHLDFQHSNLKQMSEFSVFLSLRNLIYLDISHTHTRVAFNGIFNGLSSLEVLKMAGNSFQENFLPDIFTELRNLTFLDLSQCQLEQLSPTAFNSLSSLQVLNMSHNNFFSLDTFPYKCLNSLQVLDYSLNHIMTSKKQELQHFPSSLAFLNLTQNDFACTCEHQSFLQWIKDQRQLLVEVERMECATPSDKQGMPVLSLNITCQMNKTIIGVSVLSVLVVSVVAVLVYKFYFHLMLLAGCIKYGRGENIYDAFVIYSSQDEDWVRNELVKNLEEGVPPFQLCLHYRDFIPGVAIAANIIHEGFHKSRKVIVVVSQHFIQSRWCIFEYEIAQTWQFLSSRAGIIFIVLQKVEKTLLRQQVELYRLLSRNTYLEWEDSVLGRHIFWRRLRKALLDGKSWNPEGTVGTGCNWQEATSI
Chain of TLR4 (Q9Y6Y9 17-160 limits assumed): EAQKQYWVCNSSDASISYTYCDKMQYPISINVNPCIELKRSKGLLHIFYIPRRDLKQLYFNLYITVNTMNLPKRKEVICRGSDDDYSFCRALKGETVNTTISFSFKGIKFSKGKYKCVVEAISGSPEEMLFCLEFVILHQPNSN

[2] = Average solubility, Tables S1–S3, average of two samples
[3] = Solubility sample 1, Tables S1–S3, replicate 1
[4] = Solubility sample 2, Tables S1–S3, replicate 2
[5] = solubility in PBS, kinetic solubility, HPLC solubility assay
[6] = PBS, Solubility sample 1, Tables S1–S3, replicate 1
[7] = PBS, Solubility sample 2, Tables S1–S3, replicate 2
[8] = PBS, solubility in PBS, kinetic solubility, HPLC solubility assay
[9] = PBS, Average solubility, Tables S1–S3, average of two samples

Chain of NOD2 (Q9HC29 whole entry): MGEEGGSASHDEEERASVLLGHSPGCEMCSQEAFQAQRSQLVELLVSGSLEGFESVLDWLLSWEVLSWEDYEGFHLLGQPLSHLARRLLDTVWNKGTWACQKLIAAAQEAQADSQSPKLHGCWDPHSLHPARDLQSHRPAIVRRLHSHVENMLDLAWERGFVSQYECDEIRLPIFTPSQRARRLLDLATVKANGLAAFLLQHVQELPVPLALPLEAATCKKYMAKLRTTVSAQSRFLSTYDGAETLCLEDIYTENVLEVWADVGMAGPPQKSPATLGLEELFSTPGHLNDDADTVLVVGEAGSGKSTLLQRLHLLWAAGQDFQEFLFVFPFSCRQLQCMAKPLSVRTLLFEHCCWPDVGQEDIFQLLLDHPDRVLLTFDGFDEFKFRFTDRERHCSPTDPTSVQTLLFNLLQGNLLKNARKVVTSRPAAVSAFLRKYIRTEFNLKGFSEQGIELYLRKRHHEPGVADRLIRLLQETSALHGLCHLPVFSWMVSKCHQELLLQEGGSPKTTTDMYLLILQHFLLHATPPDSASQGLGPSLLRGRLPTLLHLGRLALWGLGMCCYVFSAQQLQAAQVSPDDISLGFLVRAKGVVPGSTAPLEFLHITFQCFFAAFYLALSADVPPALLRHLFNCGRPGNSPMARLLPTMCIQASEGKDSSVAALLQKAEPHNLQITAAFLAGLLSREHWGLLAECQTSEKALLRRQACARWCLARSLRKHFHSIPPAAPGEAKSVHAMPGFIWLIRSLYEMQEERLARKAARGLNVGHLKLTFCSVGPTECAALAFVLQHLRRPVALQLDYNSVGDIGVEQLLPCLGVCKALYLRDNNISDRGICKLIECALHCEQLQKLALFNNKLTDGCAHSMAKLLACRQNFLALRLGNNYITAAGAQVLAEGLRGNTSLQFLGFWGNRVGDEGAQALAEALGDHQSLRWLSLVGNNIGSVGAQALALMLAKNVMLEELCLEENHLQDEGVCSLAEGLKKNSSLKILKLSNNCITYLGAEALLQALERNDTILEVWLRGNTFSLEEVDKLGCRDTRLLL

In the case of `CCOC(=O)[C@@H](CCC(=O)NCCCOCCOCCOCCCNC(=O)CSc1nc2c([nH]c3ccccc32)c(=O)n1-c1ccccc1)NC(=O)[C@@H](NC(=O)CNC(=O)/C=C/c1ccc(O)c(OC)c1)C(C)C` [Compound 30, Ethyl (R)-21-((S)-2-(2-((E)-3-(4-Hydroxy-3-methoxyphenyl)acrylamido)acetamido)-3-methylbutanamido)-2,18-dioxo-1-((4-oxo-3-phenyl-4,5-dihydro-3H-pyrimido[5,4-b]indol-2-yl)thio)-7,10,13-trioxa-3,17-diazadocosan-22-oate], the “NOD2 activation at 10 μM, fold increase” value (NOD2) is reported as 1.55 fold increase, the solubility [1, 2] is reported as 122 µM (≈ 128 µg/mL) and the solubility [1, 3] is reported as 124 µM (≈ 129 µg/mL). For the same compound, the solubility [1, 4] was 121 µM (≈ 126 µg/mL), the solubility [1, 5] was 122 µM (≈ 128 µg/mL) and the “TLR4 activation at 10 μM, fold increase” value (TLR4; 10 μM) was 1.05 fold increase. For the same compound, the “TLR4 activation at 100 μM, fold increase” value (TLR4) was 1.36 fold increase.

With `CCOC(=O)[C@H](CCC(=O)NCCOCCOCCNC(=O)CSc1nc2c([nH]c3ccccc32)c(=O)n1-c1ccccc1)NC(=O)[C@H](NC(=O)CNC(=O)/C=C/c1ccc(O)c(OC)c1)C(C)C` [Compound 29, Ethyl (S)-16-((R)-2-(2-((E)-3-(4-Hydroxy-3-methoxyphenyl)acrylamido)acetamido)-3-methylbutanamido)-2,13-dioxo-1-((4-oxo-3-phenyl-4,5-dihydro-3H-pyrimido[5,4-b]indol-2-yl)thio)-6,9-dioxa-3,12-diazaheptadecan-17-oate] the “NOD2 activation at 10 μM, fold increase” value (NOD2) was 1.60 fold increase, the solubility [1, 2] was 238 µM (≈ 231 µg/mL) and the solubility [1, 3] was 232 µM (≈ 225 µg/mL). For the same compound, the solubility [1, 4] was 244 µM (≈ 237 µg/mL), the solubility [1, 5] was 238 µM (≈ 231 µg/mL) and the “TLR4 activation at 10 μM, fold increase” value (TLR4; 10 μM) was 1.00 fold increase. For the same compound, the “TLR4 activation at 100 μM, fold increase” value (TLR4) was 1.43 fold increase.

In the case of `CCOC(=O)[C@H](CCC(=O)NCCCCCCNC(=O)Cc1ccc(C(C(=O)NC2CCCC2)N(C(=O)c2cc(-c3ccccc3)n(-c3ccccc3)n2)c2ccc3c(c2)CCC3)cc1)NC(=O)[C@@H](NC(=O)CNC(=O)/C=C/c1ccc(O)c(OC)c1)C(C)C` (stereo partly drawn) [Compound 18, Ethyl N ^5-(6-(2-(4-(2-(Cyclopentylamino)-1-(N-(2,3-dihydro-1H-inden-5-yl)-1,5-diphenyl-1H-pyrazole-3-carboxamido)-2-oxoethyl)phenyl)acetamido)hexyl)-N ^2-((E)-3-(4-hydroxy-3-methoxyphenyl)acryloyl)glycyl-L-valyl-D-glutaminate], the “NOD2 activation at 10 μM, fold increase” value (NOD2) is reported as 2.43 fold increase, the solubility [1, 6] is reported as 0.85 µM (≈ 1.04 µg/mL) and the solubility [1, 7] is reported as 1.17 µM (≈ 1.43 µg/mL). The solubility [1, 8] was 1.01 µM (≈ 1.24 µg/mL), the “TLR4 agonism” value (TLR4; 10 μM) was “weak TLR4 agonism” and the “TLR4 activation at 10 μM, fold increase” value (TLR4; 10 μM) was 1.46 fold increase.

`O=C(O)Cc1ccc(C(C(=O)NC2CCCC2)N(C(=O)c2cc(-c3ccccc3)n(-c3ccccc3)n2)c2ccc3c(c2)CCC3)cc1` (stereo not shown) [Compound 4, reference compound] gave a solubility [1, 9] of 238 µM (≈ 152 µg/mL), a solubility [1, 6] of 249 µM (≈ 159 µg/mL) and a solubility [1, 7] of 226 µM (≈ 145 µg/mL). The solubility [1, 8] was 238 µM (≈ 152 µg/mL), the “TLR4 activation at 10 μM, fold increase” value (TLR4; 10 μM) was 7.23 fold increase and the “maximum TLR4 activation” value (TLR4) was 7.23 fold.

In the case of `CCOC(=O)[C@H](CCC(=O)NCCNC(=O)CSc1nc2c([nH]c3ccccc32)c(=O)n1-c1ccccc1)NC(=O)[C@H](NC(=O)CNC(=O)/C=C/c1ccc(O)c(OC)c1)C(C)C` [Compound 27, Ethyl N ^2-((E)-3-(4-Hydroxy-3-methoxyphenyl)acryloyl)glycyl-D-valyl-N ^5-(2-(2-((4-oxo-3-phenyl-4,5-dihydro-3H-pyrimido[5,4-b]indol-2-yl)thio)acetamido)ethyl)-L-glutaminate], the “NOD2 activation at 10 μM, fold increase” value (NOD2) is reported as 2.17 fold increase, the solubility [1, 2] is reported as 310 µM (≈ 274 µg/mL) and the solubility [1, 3] is reported as 322 µM (≈ 284 µg/mL). For the same compound, the solubility [1, 4] was 298 µM (≈ 264 µg/mL), the solubility [1, 5] was 310 µM (≈ 274 µg/mL) and the “TLR4 activation at 10 μM, fold increase” value (TLR4; 10 μM) was 1.06 fold increase. The “TLR4 activation at 100 μM, fold increase” value (TLR4) was 2.60 fold increase.

In the case of `CCOC(=O)[C@H](CCC(=O)NCCOCCOCCNC(=O)Cc1ccc(C(C(=O)NC2CCCC2)N(C(=O)c2cc(-c3ccccc3)n(-c3ccccc3)n2)c2ccc3c(c2)CCC3)cc1)NC(=O)[C@H](NC(=O)CNC(=O)/C=C/c1ccc(O)c(OC)c1)C(C)C` (stereo partly drawn) [Compound 19, Ethyl (16S)-1-(4-(2-(Cyclopentylamino)-1-(N-(2,3-dihydro-1H-inden-5-yl)-1,5-diphenyl-1H-pyrazole-3-carboxamido)-2-oxoethyl)phenyl)-16-((R)-2-(2-((E)-3-(4-hydroxy-3-methoxyphenyl)acrylamido)acetamido)-3-methylbutanamido)-2,13-dioxo-6,9-dioxa-3,12-diazaheptadecan-17-oate], the “NOD2 activation at 10 μM, fold increase” value (NOD2) is reported as 3.06 fold increase, the solubility [1, 6] is reported as 2.59 µM (≈ 3.26 µg/mL) and the solubility [1, 7] is reported as 1.68 µM (≈ 2.11 µg/mL). For the same compound, the solubility [1, 8] was 2.14 µM (≈ 2.69 µg/mL), the “TLR4 activation at 10 μM, fold increase” value (TLR4; 10 μM) was 2.78 fold increase and the “concentration at which compound activated TLR4” value (from here on “concentration”) (TLR4) was 5 µM.

Work on `O=C(O)CSc1nc2c([nH]c3ccccc32)c(=O)n1-c1ccccc1` [Compound 6, reference compound] yielded a solubility [1, 9] of 254 µM (≈ 89.3 µg/mL), a solubility [1, 6] of 270 µM (≈ 94.8 µg/mL) and a solubility [1, 7] of 238 µM (≈ 83.7 µg/mL). For the same compound, the solubility [1, 8] was 254 µM (≈ 89.3 µg/mL), the “TLR4 activation at 10 μM, fold increase” value (TLR4; 10 μM) was 1.22 fold increase and the “TLR4 activation at 100 μM, fold increase” value (TLR4) was 3.10 fold increase. The “maximum TLR4 activation” value (TLR4) was 3.10 fold.

In the case of `CCOC(=O)[C@H](CCC(=O)NCCNC(=O)Cc1ccc(C(C(=O)NC2CCCC2)N(C(=O)c2cc(-c3ccccc3)n(-c3ccccc3)n2)c2ccc3c(c2)CCC3)cc1)NC(=O)[C@@H](NC(=O)CNC(=O)/C=C/c1ccc(O)c(OC)c1)C(C)C` (stereo partly drawn) [Compound 17, Ethyl N ^5-(2-(2-(4-(2-(Cyclopentylamino)-1-(N-(2,3-dihydro-1H-inden-5-yl)-1,5-diphenyl-1H-pyrazole-3-carboxamido)-2-oxoethyl)phenyl)acetamido)ethyl)-N ^2-((E)-3-(4-hydroxy-3-methoxyphenyl)acryloyl)glycyl-L-valyl-D-glutaminate], the “NOD2 activation at 10 μM, fold increase” value (NOD2) is reported as 3.66 fold increase, the “NOD2 agonist activity” value (NOD2) is reported as “comparable efficiency to MDP” and the solubility [1, 6] is reported as 0.68 µM (≈ 0.796 µg/mL). The solubility [1, 7] was 0.83 µM (≈ 0.971 µg/mL), the solubility [1, 8] was 0.76 µM (≈ 0.889 µg/mL) and the “TLR4 activation at 10 μM, fold increase” value (TLR4; 10 μM) was 5.10 fold increase. For the same compound, the “concentration” value (TLR4) was 1.0 µM.

With `CCOC(=O)[C@H](CCC(=O)N1CCC(CN2CCN(C(=O)CSc3nc4c([nH]c5ccccc54)c(=O)n3-c3ccccc3)CC2)CC1)NC(=O)[C@H](NC(=O)CNC(=O)/C=C/c1ccc(O)c(OC)c1)C(C)C` [Compound 31, Ethyl (S)-2-((R)-2-(2-((E)-3-(4-Hydroxy-3-methoxyphenyl)acrylamido)acetamido)-3-methylbutanamido)-5-oxo-5-(4-((4-(2-((4-oxo-3-phenyl-4,5-dihydro-3H-pyrimido[5,4-b]indol-2-yl)thio)acetyl)piperazin-1-yl)methyl)piperidin-1-yl)pentanoate] the “NOD2 activation at 10 μM, fold increase” value (NOD2) was 3.33 fold increase, the solubility [1, 3] was 7.22 µM (≈ 7.26 µg/mL) and the solubility [1, 4] was 6.15 µM (≈ 6.19 µg/mL). The solubility [1, 5] was 6.68 µM (≈ 6.72 µg/mL), the “TLR4 activation at 10 μM, fold increase” value (TLR4; 10 μM) was 1.05 fold increase and the “TLR4 activation at 100 μM, fold increase” value (TLR4) was 2.26 fold increase.

With `CCOC(=O)[C@H](CCC(=O)NCCCCCCNC(=O)CSc1nc2c([nH]c3ccccc32)c(=O)n1-c1ccccc1)NC(=O)[C@H](NC(=O)CNC(=O)/C=C/c1ccc(O)c(OC)c1)C(C)C` [Compound 28, Ethyl N ^2-((E)-3-(4-Hydroxy-3-methoxyphenyl)acryloyl)glycyl-D-valyl-N ^5-(6-(2-((4-oxo-3-phenyl-4,5-dihydro-3H-pyrimido[5,4-b]indol-2-yl)thio)acetamido)hexyl)-L-glutaminate] the “NOD2 activation at 10 μM, fold increase” value (NOD2) was 1.65 fold increase, the solubility [1, 2] was 80 µM (≈ 75.1 µg/mL) and the solubility [1, 3] was 115 µM (≈ 108 µg/mL). For the same compound, the solubility [1, 4] was 80.7 µM (≈ 75.8 µg/mL), the solubility [1, 5] was 80 µM (≈ 75.1 µg/mL) and the “TLR4 activation at 10 μM, fold increase” value (TLR4; 10 μM) was 1.06 fold increase. The “TLR4 activation at 100 μM, fold increase” value (TLR4) was 1.72 fold increase.

With `CCOC(=O)[C@@H](CCC(=O)NCCCOCCOCCOCCCNC(=O)Cc1ccc(C(C(=O)NC2CCCC2)N(C(=O)c2cc(-c3ccccc3)n(-c3ccccc3)n2)c2ccc3c(c2)CCC3)cc1)NC(=O)[C@@H](NC(=O)CNC(=O)/C=C/c1ccc(O)c(OC)c1)C(C)C` (stereo partly drawn) [Compound 20, Ethyl (21R)-1-(4-(2-(Cyclopentylamino)-1-(N-(2,3-dihydro-1H-inden-5-yl)-1,5-diphenyl-1H-pyrazole-3-carboxamido)-2-oxoethyl)phenyl)-21-((S)-2-(2-((E)-3-(4-hydroxy-3-methoxyphenyl)acrylamido)acetamido)-3-methylbutanamido)-2,18-dioxo-7,10,13-trioxa-3,17-diazadocosan-22-oate] the “NOD2 activation at 10 μM, fold increase” value (NOD2) was 3.53 fold increase, the “NOD2 agonist activity” value (NOD2) was “comparable efficiency to MDP” and the solubility [1, 6] was 1.61 µM (≈ 2.14 µg/mL). The solubility [1, 7] was 1.38 µM (≈ 1.84 µg/mL), the solubility [1, 8] was 1.5 µM (≈ 2 µg/mL) and the “TLR4 activation at 10 μM, fold increase” value (TLR4; 10 μM) was 2.68 fold increase. For the same compound, the “concentration” value (TLR4) was 5 µM.
